Patent US20260167619A2, “INDOLINE COMPOUNDS AND DERIVATIVES AS EGFR INHIBITORS” (BeOne Medicines I GmbH, priority 2020, published 2026)

Columns and labels:
[1] = biological target: EGFR(Dell9_T790M_C797S) (aa 669-1210, in house) (Homo sapiens, UniProt P00533, T790M/C797S, form not given); test: Biochemical EGFR inhibition assay (TR-FRET), Del19/T790M/C797S mutant; details: ATP at Km, 15 min pre-incubation, 60 min reaction; read-out: Del_TM_CS (Km ATP) IC50
Procedure: (§1) Compounds were tested for inhibition of kinase activity against EGFR (aa668-1210, Invitrogen), EGFR(L858R_T790M_C797S) (aa695-end, Invitrogen) and EGFR(Dell9_T790M_C797S) (aa 669-1210, in house) in assays based on time-resolved fluorescence-resonance energy transfer (TR-FRET) methodology. Recombinant EGFR, EGFR(L858R_T790M_C797S) or EGFR(Dell9_T790M_C797S) was pre-incubated with the compounds at room temperature for 15 minutes in an assay buffer containing 50 mM HEPES pH7.5, 10 mM MgCl2, 2 mM DTT, 1 mM EGTA, 0.1% BSA, 0.01% Tween-20. The reactions were initiated by the addition of ATP (at the concentration of ATP Km) and substrate Biotin-Poly GT. After reaction at room temperature for 60 minutes, stop/detection solution was added. The stop/detection solution contained Eu^3+ cryptate-conjugated mouse monoclonal antibody (PT66) anti-phosphotyrosine and XL665-conjugated streptavidin in buffer containing 50 mM HEPES pH7.0, 800 mM KF, 20 mM EDTA, and 0.1% BSA. Plates were sealed and incubated at room temperature for 1 hour, and the TR-FRET signals (ratio of fluorescence emission at 665 nm over emission at 620 nm with excitation at 337 nm wavelength) were recorded on a PHERAstar FS plate reader (BMG Labtech). The residual enzyme activity in presence of increasing concentrations of compounds was calculated based on the ratio of fluorescence at 665 nm to that at 620 nm. The IC50 for each compound was derived from fitting the data to the four-parameter logistic equation by Dotmatics or Graphpad Prism software.
(§2) These biochemical EGFR enzyme form compound dose-response assays quantify the kinase activity via phosphorylation of a tagged poly-GT substrate. The results of the assay are provided as IC50 values.

[2] = biological target: T1, EGFR(L858R_T790M_C797S) (aa695-end, Invitrogen) (Homo sapiens, UniProt P00533, C797S/L858R/T790M); test: Biochemical EGFR inhibition assay (TR-FRET), L858R/T790M/C797S mutant; details: ATP at Km, 15 min pre-incubation, 60 min reaction; read-out: LR_TM_CS (Km ATP) IC50
T1 construct: purchased Invitrogen
T1 sequence (P00533 695-1210 T790M/C797S/L858R): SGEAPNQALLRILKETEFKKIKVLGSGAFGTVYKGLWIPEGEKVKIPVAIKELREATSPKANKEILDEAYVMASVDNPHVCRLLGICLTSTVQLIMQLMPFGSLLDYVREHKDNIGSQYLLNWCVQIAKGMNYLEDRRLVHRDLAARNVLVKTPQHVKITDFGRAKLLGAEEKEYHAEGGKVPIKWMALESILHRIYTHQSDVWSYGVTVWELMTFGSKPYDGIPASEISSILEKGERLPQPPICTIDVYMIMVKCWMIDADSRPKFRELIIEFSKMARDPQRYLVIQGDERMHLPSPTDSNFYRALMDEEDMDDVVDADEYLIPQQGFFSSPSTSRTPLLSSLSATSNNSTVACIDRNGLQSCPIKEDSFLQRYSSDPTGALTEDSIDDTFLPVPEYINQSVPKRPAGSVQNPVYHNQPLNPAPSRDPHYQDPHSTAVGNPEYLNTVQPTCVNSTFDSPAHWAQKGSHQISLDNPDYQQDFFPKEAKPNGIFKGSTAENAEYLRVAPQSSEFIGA
Procedure: as §1, §2

[3] = biological target: T2, EGFR (aa668-1210, Invitrogen) (Homo sapiens, UniProt P00533); test: Biochemical EGFR inhibition assay (TR-FRET), wild-type EGFR; details: ATP at Km, 15 min pre-incubation, 60 min reaction; read-out: WT (Km ATP) IC50
T2 construct: EGFR (aa668-1210, Invitrogen); purchased Invitrogen
T2 sequence (P00533 668-1210): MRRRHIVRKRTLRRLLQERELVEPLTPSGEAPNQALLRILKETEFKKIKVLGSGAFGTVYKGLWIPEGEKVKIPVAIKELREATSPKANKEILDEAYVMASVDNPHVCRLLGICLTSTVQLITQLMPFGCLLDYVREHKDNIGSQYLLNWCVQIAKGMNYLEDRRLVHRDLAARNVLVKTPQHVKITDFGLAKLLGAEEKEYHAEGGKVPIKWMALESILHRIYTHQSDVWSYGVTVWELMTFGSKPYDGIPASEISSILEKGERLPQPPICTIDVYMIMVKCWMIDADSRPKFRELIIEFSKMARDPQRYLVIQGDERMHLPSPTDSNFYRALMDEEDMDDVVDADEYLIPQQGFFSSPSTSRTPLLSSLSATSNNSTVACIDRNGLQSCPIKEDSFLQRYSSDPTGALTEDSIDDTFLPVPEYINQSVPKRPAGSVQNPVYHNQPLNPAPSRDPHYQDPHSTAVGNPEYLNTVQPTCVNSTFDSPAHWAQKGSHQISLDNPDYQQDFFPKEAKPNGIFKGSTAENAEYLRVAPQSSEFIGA
Procedure: as §1, §2

Chain of EGFR(Dell9_T790M_C797S) (aa 669-1210, in house) (P00533 with tags, fused parts or gaps DEL746-750/T790M/C797S, form open): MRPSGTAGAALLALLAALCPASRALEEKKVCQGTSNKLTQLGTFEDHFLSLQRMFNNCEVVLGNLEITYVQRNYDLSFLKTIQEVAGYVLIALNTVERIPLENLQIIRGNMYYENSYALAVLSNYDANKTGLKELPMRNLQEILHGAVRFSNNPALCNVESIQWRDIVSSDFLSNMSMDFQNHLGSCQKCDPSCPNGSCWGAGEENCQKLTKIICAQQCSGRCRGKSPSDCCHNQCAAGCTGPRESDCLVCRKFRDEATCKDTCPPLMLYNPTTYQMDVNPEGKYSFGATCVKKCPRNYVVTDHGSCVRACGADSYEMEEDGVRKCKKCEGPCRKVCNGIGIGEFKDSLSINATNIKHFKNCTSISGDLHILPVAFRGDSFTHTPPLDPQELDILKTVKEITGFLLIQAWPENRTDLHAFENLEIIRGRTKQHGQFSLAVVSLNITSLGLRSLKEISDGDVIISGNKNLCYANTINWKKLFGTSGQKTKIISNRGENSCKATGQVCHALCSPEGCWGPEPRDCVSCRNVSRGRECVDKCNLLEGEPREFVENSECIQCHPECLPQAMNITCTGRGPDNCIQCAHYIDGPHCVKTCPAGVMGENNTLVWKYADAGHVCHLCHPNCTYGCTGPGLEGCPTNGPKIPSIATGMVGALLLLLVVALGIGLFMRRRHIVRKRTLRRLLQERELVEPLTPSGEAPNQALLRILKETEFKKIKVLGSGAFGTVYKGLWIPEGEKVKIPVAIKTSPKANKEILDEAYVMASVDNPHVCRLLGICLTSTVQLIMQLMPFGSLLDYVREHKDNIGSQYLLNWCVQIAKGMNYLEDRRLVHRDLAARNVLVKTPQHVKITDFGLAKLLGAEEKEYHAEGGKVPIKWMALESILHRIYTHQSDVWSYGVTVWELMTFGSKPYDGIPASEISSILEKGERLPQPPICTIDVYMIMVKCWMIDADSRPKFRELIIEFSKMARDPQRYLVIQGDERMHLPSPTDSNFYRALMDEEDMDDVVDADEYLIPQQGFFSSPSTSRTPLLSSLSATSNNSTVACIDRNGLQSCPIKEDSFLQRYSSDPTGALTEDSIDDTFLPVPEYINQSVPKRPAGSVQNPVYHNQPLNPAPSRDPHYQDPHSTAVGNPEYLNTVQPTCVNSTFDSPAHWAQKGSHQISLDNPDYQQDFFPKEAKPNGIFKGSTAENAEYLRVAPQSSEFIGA

COc1cc(N2C[C@@H]3C[C@H]2CN3C)ccc1Nc1nc(Nc2cccc3c2N(S(C)(=O)=O)CC3)c2cc[nH]c2n1 [Example 110, N^2-(2-methoxy-4-((1S,4S)-5-methyl-2,5-diazabicyclo[2.2.1]heptan-2-yl)phenyl)-N^4-(1-(methylsulfonyl)indolin-7-yl)-7H-pyrrolo[2,3-d]pyrimidine-2,4-diamine]
IC50 [1]: 10.7 nM | IC50 [2]: 5.1 nM | IC50 [3]: 572 nM

CN1CCN(C2CCN(c3ccc(Nc4ncc(Br)c(Nc5cccc6c5N(S(C)(=O)=O)CC6)n4)c4c3CC(C)(C)O4)CC2)CC1 [Example 57, 5-bromo-N^2-(2,2-dimethyl-4-(4-(4-methylpiperazin-1-yl)piperidin-1-yl)-2,3-dihydrobenzofuran-7-yl)-N^4-(1-(methylsulfonyl)indolin-7-yl)pyrimidine-2,4-diamine]
IC50 [1]: 8.79 nM | IC50 [2]: 17.1 nM | IC50 [3]: 101 nM

COc1cc(N2CCC(N3CCN(C)CC3=O)CC2)ccc1Nc1nc(Nc2cccc3c2N(S(C)(=O)=O)CC3)c2cc[nH]c2n1 [Example 191, 1-(1-(3-methoxy-4-((4-((1-(methylsulfonyl)indolin-7-yl)amino)-7H-pyrrolo[2,3-d]pyrimidin-2-yl)amino)phenyl)piperidin-4-yl)-4-methylpiperazin-2-one]
IC50 [1]: 1.9 nM | IC50 [2]: 0.6 nM | IC50 [3]: 31.6 nM

CC1Cc2c(N3CCC(N(C)C)CC3)ccc(Nc3ncc(Br)c(Nc4cccc5c4N(S(C)(=O)=O)CC5)n3)c2O1 (stereo not drawn) [Example 65, 5-bromo-N^2-(4-(4-(dimethylamino)piperidin-1-yl)-2-methyl-2,3-dihydrobenzofuran-7-yl)-N^4-(1-(methylsulfonyl)indolin-7-yl)pyrimidine-2,4-diamine]
IC50 [1]: 0.63 nM | IC50 [2]: 0.48 nM | IC50 [3]: 5.5 nM

COc1cc(N2CCC(N3CCN(C)CC3)CC2)ccc1Nc1ncc(Br)c(Nc2cccc3c2N(S(C)(=O)=O)C(C)(C)C3)n1 [Example 134, 5-bromo-N4-(2,2-dimethyl-1-(methylsulfonyl)indolin-7-yl)-N2-(2-methoxy-4-(4-(4-methylpiperazin-1-yl)piperidin-1-yl)phenyl)pyrimidine-2,4-diamine]
IC50 [1]: 0.8 nM | IC50 [2]: 0.3 nM | IC50 [3]: 11.5 nM

C#Cc1cnc(Nc2ccc(N3CCC(N4CCN(C)CC4)CC3)cc2OC)nc1Nc1cccc2c1N(S(C)(=O)=O)CC2 [Example 196, 5-ethynyl-N2-(2-methoxy-4-(4-(4-methylpiperazin-1-yl)piperidin-1-yl)phenyl)-N4-(1-(methylsulfonyl)indolin-7-yl)pyrimidine-2,4-diamine]
IC50 [1]: 1.5 nM | IC50 [2]: 1.3 nM | IC50 [3]: 9.3 nM

COc1cc(N2CCC(N3CCN(C)CC3)CC2)c(C)cc1Nc1ncc(Cl)c(Nc2cccc3c2N(S(C)(=O)=O)CC32CC2)n1 [Example 188, 5-chloro-N2-(2-methoxy-5-methyl-4-(4-(4-methylpiperazin-1-yl)piperidin-1-yl)phenyl)-N4-(1′-(methylsulfonyl)spiro[cyclopropane-1,3′-indolin]-7′-yl)pyrimidine-2,4-diamine]
IC50 [1]: 0.7 nM | IC50 [2]: 0.3 nM | IC50 [3]: 0.5 nM

CN1CCN(C2CCN(c3ccc(Nc4ncc(Br)c(Nc5cccc6c5N(S(C)(=O)=O)CC6)n4)c4c3OCCO4)CC2)CC1 [Example 193, 5-bromo-N2-(8-(4-(4-methylpiperazin-1-yl)piperidin-1-yl)-2,3-dihydrobenzo[b][1,4]dioxin-5-yl)-N4-(1-(methylsulfonyl)indolin-7-yl)pyrimidine-2,4-diamine]
IC50 [1]: 0.2 nM | IC50 [2]: 0.9 nM | IC50 [3]: 7.1 nM

COc1cc(N2CCC(N3CCN(C)C(=O)C3)CC2)ccc1Nc1nc(Nc2cccc3c2N(S(C)(=O)=O)CC3)c2cc[nH]c2n1 [Example 186, 4-(1-(3-methoxy-4-((4-((1-(methylsulfonyl)indolin-7-yl)amino)-7H-pyrrolo[2,3-d]pyrimidin-2-yl)amino)phenyl)piperidin-4-yl)-1-methylpiperazin-2-one]
IC50 [1]: 4.9 nM | IC50 [2]: 1.5 nM | IC50 [3]: 140 nM

COc1cc(Nc2nc(Nc3cccc4c3N(S(C)(=O)=O)CC4)c3cc[nH]c3n2)c(F)cc1N1CCC(N2CCN(C)CC2)CC1 [Example 149, N2-(2-fluoro-5-methoxy-4-(4-(4-methylpiperazin-1-yl)piperidin-1-yl)phenyl)-N4-(1-(methylsulfonyl)indolin-7-yl)-7H-pyrrolo[2,3-d]pyrimidine-2,4-diamine]
IC50 [1]: 0.4 nM | IC50 [2]: 0.4 nM | IC50 [3]: 22.1 nM

COc1cc(N2CCC(N(C)C)CC2)c(C)cc1Nc1ncc(Br)c(Nc2cccc3c2N(S(C)(=O)=O)CC3)n1 [Example 46, 5-bromo-N^2-(4-(4-(dimethylamino)piperidin-1-yl)-2-methoxy-5-methylphenyl)-N^4-(1-(methylsulfonyl)indolin-7-yl)pyrimidine-2,4-diamine]
IC50 [1]: 0.2 nM | IC50 [2]: 0.1 nM | IC50 [3]: 0.9 nM

COc1cc(Nc2nc(Nc3cccc4c3N(S(C)(=O)=O)CC4)c3cc[nH]c3n2)cc(F)c1N1CCC(N2CCN(C)CC2)CC1 [Example 148, N2-(3-fluoro-5-methoxy-4-(4-(4-methylpiperazin-1-yl)piperidin-1-yl)phenyl)-N4-(1-(methylsulfonyl)indolin-7-yl)-7H-pyrrolo[2,3-d]pyrimidine-2,4-diamine]
IC50 [1]: 6.5 nM | IC50 [2]: 9.9 nM | IC50 [3]: 1390 nM

COc1cc(N2CCC(N3CCN(C)CC3)CC2)c(C)cc1Nc1nc(N)c(Br)c(Nc2cccc3c2N(S(C)(=O)=O)CC3)n1 [Example 197, 5-bromo-N2-(2-methoxy-5-methyl-4-(4-(4-methylpiperazin-1-yl)piperidin-1-yl)phenyl)-N4-(1-(methylsulfonyl)indolin-7-yl)pyrimidine-24,6-triamine]
IC50 [1]: 2.9 nM | IC50 [2]: 1.2 nM | IC50 [3]: 1.2 nM

COc1cc(N2[C@@H]3CC[C@H]2CN(C)C3)ccc1Nc1nc(Nc2cccc3c2N(S(C)(=O)=O)CC3)c2cc[nH]c2n1 [Example 111, N^2-(2-methoxy-4-((1R,5S)-3-methyl-3,8-diazabicyclo[3.2.1]octan-8-yl)phenyl)-N^4-(1-(methylsulfonyl)indolin-7-yl)-7H-pyrrolo[2,3-d]pyrimidine-2,4-diamine]
IC50 [1]: 11.1 nM | IC50 [2]: 2.8 nM | IC50 [3]: 146 nM

COc1cc(N2CCC(N3CCN(C)CC3)CC2)ccc1Nc1ncc(Br)c(Nc2cccc3c2N(S(C)(=O)=O)C2(CC2)C3)n1 [Example 136, 5-bromo-N2-(2-methoxy-4-(4-(4-methylpiperazin-1-yl)piperidin-1-yl)phenyl)-N4-(1′-(methylsulfonyl)spiro[cyclopropane-1,2′-indolin]-7′-yl)pyrimidine-2,4-diamine]
IC50 [1]: 0.9 nM | IC50 [2]: 0.3 nM | IC50 [3]: 1.4 nM

CN1CCN(C2CCN(c3ccc(Nc4nc(Nc5cccc6c5N(S(C)(=O)=O)CC6)c5cc[nH]c5n4)cc3)CC2)CC1 [Example 194, N2-(4-(4-(4-methylpiperazin-1-yl)piperidin-1-yl)phenyl)-N4-(1-(methylsulfonyl)indolin-7-yl)-7H-pyrrolo[2,3-d]pyrimidine-2,4-diamine]
IC50 [1]: 0.2 nM | IC50 [2]: 0.1 nM | IC50 [3]: 16.5 nM

COc1cc(N2CCC3(CCN(C)CC3)CC2)c(Cl)cc1Nc1ncc(Br)c(Nc2cccc3c2N(S(C)(=O)=O)CC3)n1 [Example 44, 5-bromo-N^2-(5-chloro-2-methoxy-4-(9-methyl-3,9-diazaspiro[5.5]undecan-3-yl)phenyl)-N^4-(1-(methylsulfonyl)indolin-7-yl)pyrimidine-2,4-diamine]
IC50 [1]: 0.7 nM | IC50 [2]: 0.3 nM | IC50 [3]: 3.2 nM

CN1CCN(C2CCN(c3ccc(Nc4nc(Nc5cccc6c5N(S(C)(=O)=O)CC6)c5cc[nH]c5n4)cc3F)CC2)CC1 [Example 79, N^2-(3-fluoro-4-(4-(4-methylpiperazin-1-yl)piperidin-1-yl)phenyl)-N^4-(1-(methylsulfonyl)indolin-7-yl)-7H-pyrrolo[2,3-d]pyrimidine-2,4-diamine]
IC50 [1]: 0.29 nM | IC50 [2]: 0.26 nM | IC50 [3]: 14 nM

COc1cc(N2CCC(N3CCN(C)CC3)CC2)c(C)cc1Nc1ncc(Br)c(Nc2cccc3c2N(S(C)(=O)=O)CC32CC2)n1 [Example 181, 5-bromo-N2-(2-methoxy-5-methyl-4-(4-(4-methylpiperazin-1-yl)piperidin-1-yl)phenyl)-N4-(1′-(methylsulfonyl)spiro[cyclopropane-1,3′-indolin]-7′-yl)pyrimidine-2,4-diamine]
IC50 [1]: 0.6 nM | IC50 [2]: 0.3 nM | IC50 [3]: 0.9 nM
